Values of other authors as cited in US11111208B2, “Process for the preparation of safinamide mesylate intermediate” (RK Pharma Solutions LLC, priority 2019, dated 2021).
Counter-ions that a name gives are not always drawn. Like-named read-outs stand apart in the source and are kept apart here.

What was measured:
[1] = system: gerbil ischemia model
[2] = system: MPTP-treated mice
[3] = system: rat kainic acid model
[4] = not given; remark: listed apart in the source

| solubility (in dimethyl sulfoxide) | solubility (in ethanol) | solubility (in ethyl acetate) | solubility (in methanol) | solubility (in water) | solubility ([4]; aqueous buffer pH 1.2) | solubility ([4]; aqueous buffer pH 4.5) | solubility ([4]; aqueous buffer pH 6.8) [µg/mL] | solubility ([4]; aqueous buffer pH 7.5) [µg/mL] | SMILES | neuroprotective and neurorescuing effects [1] | neuroprotective and neurorescuing effects [2] | neuroprotective and neurorescuing effects [3] |
| --- | --- | --- | --- | --- | --- | --- | --- | --- | --- | --- | --- | --- |
|  |  |  |  |  |  |  |  |  | C[C@H](NCc1ccc(OCc2cccc(F)c2)cc1)C(N)=O [Safinamide, (S)-2-[4-(3-fluorobenzyloxy)-benzylamino]propanamide] | neuroprotective and neurorescuing effects | neuroprotective and neurorescuing effects | neuroprotective and neurorescuing effects |
| freely soluble | sparingly soluble | practically insoluble | freely soluble | freely soluble | highly soluble | highly soluble | < 400 | < 400 | C[C@H](NCc1ccc(OCc2cccc(F)c2)cc1)C(N)=O [Safinamide mesylate, (S)-2-[[4-[(3-fluorophenyl)methoxy]phenyl]methyl]aminopropanamide methanesulfonate (1:1)] |  |  |  |
